# Results as given in patent US20240108725A1, “METHOD FOR TREATING CANCER AND SYSTEM FOR SAME” (OTSUKA MEDICAL DEVICES CO., LTD, priority 2020, published 2024).
# Test system: TL-Om1 cells
# Assay: Rate of dead cells after 5-ALA PDT in erythrocyte solution, TL-Om1 cells, Example 3
# Format: cell-based, human
# Protocol: C6 cells or human leukemia cell line TL-Oml cells were cultured in 2.5% FBS/F-12K medium (C6 cells) or 10% FBS/RPMI1640 (TL-Oml cells) supplemented with 5-ALA to a final concentration of 0.125 to 0.5 mM in a 5% CO2 incubator at 37° C. for 4 hours. After the culture, the cells were removed with a 0.25% trypsin-EDTA solution, and the collected cells were adjusted to 2×10^7 cells/mL with an erythrocyte solution (a solution in which erythrocytes and PBS were mixed at a ratio of 45:55). The cell suspension thus prepared was injected into a Tygon tube (inner diameter: 0.79 mm), wrapped around a light irradiator, and irradiated with light having a wavelength of 630 nm so that the irradiation energy density was 0.5 to 500 J/cm^2. After the irradiation, an ammonium chloride solution was added to the cell suspension to hemolyze the erythrocytes. Cells before the PDT treatment, after the PDT treatment, and after 24-hour culture were stained with the FITC Annexin V Apoptosis Detection Kit I and the rate of dead cells was analyzed with a flow cytometer.
# [1] = 5-ALA 0.125 mM, 10 J/cm^2, 24 hours after irradiation
# [2] = 5-ALA 0.125 mM, 50 J/cm^2, 24 hours after irradiation
# [3] = 5-ALA 0.125 mM, 100 J/cm^2, 24 hours after irradiation
# [4] = 5-ALA 0.125 mM, 200 J/cm^2, 24 hours after irradiation
# [5] = 5-ALA 0.125 mM, 300 J/cm^2, 24 hours after irradiation
# [6] = 5-ALA 0.125 mM, 400 J/cm^2, 24 hours after irradiation
# [7] = 5-ALA 0.125 mM, 500 J/cm^2, 24 hours after irradiation
# [8] = 5-ALA 0.25 mM, 1 J/cm^2, 24 hours after irradiation
# [9] = 5-ALA 0.25 mM, 1 J/cm^2, immediately after irradiation
# [10] = 5-ALA 0.25 mM, 2.5 J/cm^2, 24 hours after irradiation
# [11] = 5-ALA 0.25 mM, 2.5 J/cm^2, immediately after irradiation
# [12] = 5-ALA 0.25 mM, 5 J/cm^2, 24 hours after irradiation
# [13] = 5-ALA 0.25 mM, 5 J/cm^2, immediately after irradiation
# [14] = 5-ALA 0.25 mM, 10 J/cm^2, 24 hours after irradiation
# [15] = 5-ALA 0.25 mM, 10 J/cm^2, immediately after irradiation
# [16] = 5-ALA 0.25 mM, 50 J/cm^2, 24 hours after irradiation
# [17] = 5-ALA 0.25 mM, 50 J/cm^2, immediately after irradiation
# [18] = 5-ALA 0.25 mM, 100 J/cm^2, 24 hours after irradiation
# [19] = 5-ALA 0.25 mM, 100 J/cm^2, immediately after irradiation
# [20] = 5-ALA 0.25 mM, 200 J/cm^2, 24 hours after irradiation
# [21] = 5-ALA 0.25 mM, 200 J/cm^2, immediately after irradiation
# [22] = 5-ALA 0.25 mM, 300 J/cm^2, 24 hours after irradiation
# [23] = 5-ALA 0.25 mM, 300 J/cm^2, immediately after irradiation
# [24] = 5-ALA 0.25 mM, 400 J/cm^2, 24 hours after irradiation
# [25] = 5-ALA 0.25 mM, 400 J/cm^2, immediately after irradiation
# [26] = 5-ALA 0.25 mM, 500 J/cm^2, 24 hours after irradiation
# [27] = 5-ALA 0.25 mM, 500 J/cm^2, immediately after irradiation
# [28] = 5-ALA 0.5 mM, 1 J/cm^2, immediately after irradiation
# [29] = 5-ALA 0.5 mM, 2.5 J/cm^2, immediately after irradiation
# [30] = 5-ALA 0.5 mM, 5 J/cm^2, immediately after irradiation
# [31] = 5-ALA 0.5 mM, 10 J/cm^2, immediately after irradiation
# [32] = 5-ALA 0.5 mM, 50 J/cm^2, immediately after irradiation
# [33] = 5-ALA 0.5 mM, 100 J/cm^2, immediately after irradiation
# [34] = 5-ALA 0.5 mM, 200 J/cm^2, immediately after irradiation
# [35] = 5-ALA 0.5 mM, 300 J/cm^2, immediately after irradiation
# [36] = 5-ALA 0.5 mM, 400 J/cm^2, immediately after irradiation
# [37] = 5-ALA 0.5 mM, 500 J/cm^2, immediately after irradiation
smiles,measurement,setting,value
"NCC(=O)CCC(=O)O [5-ALA, 5-aminolevulinic acid]",Annexin V+/PI+ (%),[1],6%
same,Annexin V+/PI− (%),[1],4%
same,Annexin V+/PI+ (%),[2],6%
same,Annexin V+/PI− (%),[2],4%
same,Annexin V+/PI+ (%),[3],6%
same,Annexin V+/PI− (%),[3],5%
same,Annexin V+/PI+ (%),[4],7%
same,Annexin V+/PI− (%),[4],4%
same,Annexin V+/PI+ (%),[5],9%
same,Annexin V+/PI− (%),[5],4%
same,Annexin V+/PI+ (%),[6],12%
same,Annexin V+/PI− (%),[6],8%
same,Annexin V+/PI+ (%),[7],33%
same,Annexin V+/PI− (%),[7],14%
same,Annexin V+/PI+ (%),[8],4%
same,Annexin V+/PI− (%),[8],6%
same,Annexin V−/PI− (%),[8],90%
same,Annexin V+/PI+ (%),[9],8%
same,Annexin V+/PI− (%),[9],4%
same,Annexin V−/PI− (%),[9],88%
same,Annexin V+/PI+ (%),[10],4%
same,Annexin V+/PI− (%),[10],7%
same,Annexin V−/PI− (%),[10],89%
same,Annexin V+/PI+ (%),[11],6%
same,Annexin V+/PI− (%),[11],4%
same,Annexin V−/PI− (%),[11],89%
same,Annexin V+/PI+ (%),[12],4%
same,Annexin V+/PI− (%),[12],8%
same,Annexin V−/PI− (%),[12],88%
same,Annexin V+/PI+ (%),[13],7%
same,Annexin V+/PI− (%),[13],4%
same,Annexin V−/PI− (%),[13],88%
same,Annexin V+/PI+ (%),[14],6%
same,Annexin V+/PI− (%),[14],8%
same,Annexin V−/PI− (%),[14],86%
same,Annexin V+/PI+ (%),[15],6%
same,Annexin V+/PI− (%),[15],4%
same,Annexin V−/PI− (%),[15],90%
same,Annexin V+/PI+ (%),[16],9%
same,Annexin V+/PI− (%),[16],9%
same,Annexin V−/PI− (%),[16],83%
same,Annexin V+/PI+ (%),[17],8%
same,Annexin V+/PI− (%),[17],4%
same,Annexin V−/PI− (%),[17],87%
same,Annexin V+/PI+ (%),[18],10%
same,Annexin V+/PI− (%),[18],8%
same,Annexin V−/PI− (%),[18],83%
same,Annexin V+/PI+ (%),[19],10%
same,Annexin V+/PI− (%),[19],4%
same,Annexin V−/PI− (%),[19],85%
same,Annexin V+/PI+ (%),[20],11%
same,Annexin V+/PI− (%),[20],10%
same,Annexin V−/PI− (%),[20],79%
same,Annexin V+/PI+ (%),[21],12%
same,Annexin V+/PI− (%),[21],5%
same,Annexin V−/PI− (%),[21],82%
same,Annexin V+/PI+ (%),[22],14%
same,Annexin V+/PI− (%),[22],11%
same,Annexin V−/PI− (%),[22],75%
same,Annexin V+/PI+ (%),[23],13%
same,Annexin V+/PI− (%),[23],4%
same,Annexin V−/PI− (%),[23],82%
same,Annexin V+/PI+ (%),[24],34%
same,Annexin V+/PI− (%),[24],16%
same,Annexin V−/PI− (%),[24],50%
same,Annexin V+/PI+ (%),[25],18%
same,Annexin V+/PI− (%),[25],4%
same,Annexin V−/PI− (%),[25],77%
same,Annexin V+/PI+ (%),[26],72%
same,Annexin V+/PI− (%),[26],21%
same,Annexin V−/PI− (%),[26],7%
same,Annexin V+/PI+ (%),[27],33%
same,Annexin V+/PI− (%),[27],3%
same,Annexin V−/PI− (%),[27],63%
same,Annexin V+/PI+ (%),[28],7%
same,Annexin V+/PI− (%),[28],3%
same,Annexin V−/PI− (%),[28],89%
same,Annexin V+/PI+ (%),[29],5%
same,Annexin V+/PI− (%),[29],2%
same,Annexin V−/PI− (%),[29],92%
same,Annexin V+/PI+ (%),[30],7%
same,Annexin V+/PI− (%),[30],3%
same,Annexin V−/PI− (%),[30],90%
same,Annexin V+/PI− (%),[31],3%
same,Annexin V−/PI− (%),[31],89%
same,Annexin V+/PI− (%),[32],3%
same,Annexin V−/PI− (%),[32],83%
same,Annexin V+/PI− (%),[33],3%
same,Annexin V−/PI− (%),[33],80%
same,Annexin V+/PI− (%),[34],3%
same,Annexin V−/PI− (%),[34],78%
same,Annexin V+/PI+ (%),[35],23%
same,Annexin V+/PI− (%),[35],3%
same,Annexin V−/PI− (%),[35],72%
same,Annexin V+/PI+ (%),[36],32%
same,Annexin V+/PI− (%),[36],3%
same,Annexin V−/PI− (%),[36],61%
same,Annexin V+/PI+ (%),[37],62%
same,Annexin V+/PI− (%),[37],2%
same,Annexin V−/PI− (%),[37],30%
